Experimental data published in patent US20240139280A1, “USE OF HIF-1-ALPHA INHIBITORS IN CANCER IMMUNOTHERAPY” (ONCOC4, INC., priority 2021, published 2024).

What was measured:
[1] = system: MC38 tumor; experiment: MC38 tumor growth in mice; type: in vivo; settings: echinomycin 0.15 mg/kg
Procedure: FIGS. 3A-D show the therapeutic effects of echinomycin on tumor growth in immunodeficient and immunocompetent mice. FIG. 3A. Experimental design. Three murine tumor lines were tested: 4T1, E0771, or MC38. For each, immunodeficient and immunocompetent mice were inoculated (day 0), and treatment was initiated with control liposomes (vehicle) or echinomycin liposomes (LEM) on day 6, indicated by arrows in FIGS. 3B-3D. The kinetics of tumor growth were compared to deduce the role of adaptive immunity in the therapeutic effects of echinomycin. FIG. 3B. 4T1 cells (1×10^6) were transplanted into mammary fat pad of NSG and BALB/c mice, which received vehicle or echinomycin (0.15 mg/kg) (arrows). Mean tumor volumes±SEM are shown for one of two independent experiments (n=10/group). FIG. 3C. Kinetics of E0771 tumor growth. E0771 cells (0.7×10^6) were transplanted into mammary fat pad of NSG and C57BL/6 mice, which received vehicle or echinomycin (0.25 mg/kg) (arrows). Mean tumor volumes±SEM are shown for one of two independent experiments (n=5/group). FIG. 3D. Kinetics of MC38 tumor growth. […]
Tumor Models The details of each experiment are specified in the figure legends. […] Tumor volumes were calculated and reported based on the formula […], where a is the longer diameter, and b is the shorter diameter. […]

[2] = system: intestinal tissues; experiment: Ipilimumab-induced GI-irAE in human CTLA4 knockin mice (FITC-dextran, histology, PD-L1)
Procedure: Experimental design for GI-irAE induction by Ipilimumab, with or without additional therapies. 10-day old CTLA4h/h mice received 0.1 mg of Ipilimumab on days 10, 13, 16, and 19 after birth to induce the GI-irAE phenotype, measured by FITC-dextran assay on day 32. On day 33, the mice were sacrificed for histological and immunofluorescent analysis of intestinal tissues, and flow cytometry, etc. […] Aggregate data from 4 experiments are presented. […] Starting on day 10 after birth, the mice began receiving treatment with vehicle (n=33), echinomycin (n=27), Ipilimumab (n=33), Ipilimumab+echinomycin (n=26), Ipilimumab+RMP1-14 (n=27), Ipilimumab+echinomycin+RMP1-14 (n=28), or Ipilimumab+echinomycin+XMG1.2 (n=15). Echinomycin (10 μg/kg), Ipilimumab (0.1 mg/mouse/injection), RMP1-14 (0.2 mg/mouse/injection), and XMG1.2 (0.2 mg/mouse/injection). Vehicle or echinomycin (10 μg/kg) were given once every three days for 8 doses, and mAbs (0.1 mg/mo. for Ipilimumab; 0.2 mg/mo. for RMP1-14 and XMG1.2) once every three days for 4 doses. Data collection was performed as described in (FIG. 8A). […] Serum FITC-dextran intensity shown as mean±SEM for individual mice pooled from 3 independent experiments. […] Statistics were determined by unpaired t tests (two-tailed) for group means. […] Representative H&E images from intestines of Ipilimumab-treated mice additionally treated with echinomycin (panel i), RMP1-14 (panels ii-iv), echinomycin+RMP1-14 (panels v-vi), or echinomycin+XMG1.2 (panels vii-viii). […] Representative immunofluorescence images showing relative expression of PD-L1 in jejunum of mice from different treatment groups.
Therefore, we used intestinal permeability to orally administrated FITC-dextran and histology as the readout for irAE (FIG. 8A).

[3] = system: PD-L1 expression in E0771 cells; type: cell-based, murine

## CSC1SC[C@H]2C(=O)N(C)[C@@H](C(C)C)C(=O)OC[C@@H](NC(=O)c3cnc4ccccc4n3)C(=O)N[C@@H](C)C(=O)N(C)[C@@H]1C(=O)N(C)[C@@H](C(C)C)C(=O)OC[C@@H](NC(=O)c1cnc3ccccc3n1)C(=O)N[C@@H](C)C(=O)N2C (stereo in doubt) [echinomycin, N,N′-(2,4,12,15,17,25-hexamethyl-11,24-bis(1-methylethyl)-27-(methylthio)-3,6,10,13,16,19,23,26-octaoxo-9,22-dioxa-28-thia-2,5,12,15,18,25-hexaazabicyclo(12.12.3)nonacosane-7,20-diyl)bis(2-quinoxalinecarboxamide)]
[1]; C57BL/6, mAbs 0.2 mg/mouse/injection, vs vehicle
  MC38 tumor growth, combination study: significant inhibition of tumor growth
[1]; C57BL/6 vs NSG
  MC38 tumor growth: all therapeutic effects required immune competence
[2]; Ipilimumab 0.1 mg/mouse/injection, echinomycin 10 μg/kg added to Ipilimumab
  PD-L1 expression in the intestines: enhanced PD-L1 expression
[2]; agent added to Ipilimumab (anti-PD-1 added to Ipilimumab+echinomycin)
  Ipilimumab-induced intestinal leakage (FITC-dextran): protected against Ipilimumab-induced intestinal leakage
[2]; representative images, FIG. 8F panels
  H&E findings in intestines of Ipilimumab-treated mice additionally treated with the agent: normal pathology
[3]
  PD-L1 expression in sh-Hif1α E0771 cells: abrogated the ability for echinomycin to decrease PD-L1 protein
[3]; E0771 cells, normoxia, echinomycin 0.45 nM, 48 hours
  PD-L1 protein: reduced PD-L1 protein
[3]; scrambled shRNA, echinomycin 1.35 nM
  PD-L1 expression in sh-Scr E0771 cells: inhibitory effect of echinomycin on PD-L1 expression was preserved
